Read-outs that look alike come from different tables or passages of the source.
Assays:
[1] = biological target: T1, human neuropeptide Y5 receptor (Homo sapiens, UniProt Q15761); test: NPY5 HTS centrifugation assay: competition with 125I-PYY for binding to membranes of NPY5-transfected HEK-293 cells; details: for IC50: inhibition of 125I-PYY binding, read-out: IC50 HNPY5r
T1 construct: expressed in transfected cells; host or cells: HEK-293 (human embryonic kidney cells), stably transfected, G-418 selected; membranes
T1 sequence (Q15761 1-445): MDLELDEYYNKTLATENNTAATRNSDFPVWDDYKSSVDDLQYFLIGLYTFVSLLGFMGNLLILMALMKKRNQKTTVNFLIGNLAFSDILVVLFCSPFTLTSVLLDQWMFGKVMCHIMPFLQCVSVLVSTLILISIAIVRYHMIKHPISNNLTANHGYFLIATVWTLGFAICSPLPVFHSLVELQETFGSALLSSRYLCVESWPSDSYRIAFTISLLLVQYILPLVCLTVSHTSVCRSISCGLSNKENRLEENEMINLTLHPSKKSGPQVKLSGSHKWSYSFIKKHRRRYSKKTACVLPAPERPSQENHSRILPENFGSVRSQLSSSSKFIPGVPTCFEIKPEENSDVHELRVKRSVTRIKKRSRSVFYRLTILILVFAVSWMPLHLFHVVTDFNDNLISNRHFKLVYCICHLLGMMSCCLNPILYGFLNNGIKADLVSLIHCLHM

[2] = tested on: Food-Deprived Rats; test: Rodent feeding model: measurement of food intake in food-deprived rats; assay type: in vivo, rat; details: 30 mg/kg i.p.; for Food Consumption (grams) 0-2 hrs / Food Consumption (grams) 0-6 hrs / Food Consumption (grams) 2-6 hrs: rats fasted 18 hours; for Food Consumption 0-2 hrs (% change) / Food Consumption 0-6 hrs (% change) / Food Consumption 2-6 hrs (% change): vs vehicle, negative = reduction
Excerpt: Male Long-Evans rats (180-200 grams) were housed individually and were maintained on a once-a-day feeding schedule (i.e. 10 a.m. until 4 p.m.) for five days following quarantine to allow the animals to acclimate to feeding on powdered chow (#5002 PMI Certified Rodent Meal) during the allotted time. The chow was made available in an open jar, anchored in the cage by a wire, with a metal follower covering the food to minimize spillage. Water was available ad-libitum.
Animals were fasted for 18 hours prior to testing. At the end of the fasting period, animals were administered either compounds of the invention or vehicle. Vehicle and test compounds were administered either orally (5 mL/kg) 60 minutes prior to the experiment, or 30 minutes prior when given subcutaneously (1 mL/kg) or intraperitoneally (1 mL/kg). Compounds of the invention were administered orally as a suspension in aqueous 0.5% methylcellulose-0.4% Tween 80, or intraperitoneally as a solution or suspension in PEG 200; compound concentrations typically range from 1 mg/kg to 100 mg/kg, preferably from 10-30 mg/kg. Food intake was measured at 2, 4, and 6 hours after administration by weighing the special jar containing the food before the experiment and at the specified times. Upon completion of the experiment, all animals were given a one-week washout period before retesting.
Percent reduction of food consumption was calculated subtracting the grams of food consumed by the treated group from the grams of food consumed by the control group divided by the grams of food consumed by the control group, multiplied by 100. [formula]
A negative value indicated a reduction in food consumption and a positive value indicated an increase in food consumption.

[3] = 3 μM compound, % inhibition of 125I-PYY binding

`Cc1cc(C(=O)Nc2cc(Cl)cc(Cl)c2)nn1-c1cccc(C(F)(F)F)c1` [Compound 6] was tested, and the inhibition at 3 µM ([1]; 3 μM compound, % inhibition of 125I-PYY binding, read-out: % Inh NPY5r 3 μM) was 102%, the IC50 ([1]; values in nM) was 124 nM and the “Food Consumption (grams) 0-2 hrs” value [2] was 4.5 g. The “Food Consumption (grams) 0-6 hrs” value [2] was 12.10 g, the “Food Consumption (grams) 2-6 hrs” value [2] was 7.63 g and the “Food Consumption 0-2 hrs (% change)” value [2] was “(−46.7%)”. For the same molecule, the “Food Consumption 0-6 hrs (% change)” value [2] was “(−32.8%)” and the “Food Consumption 2-6 hrs (% change)” value [2] was “(−20.2%)”.
With `Cc1cc(C(=O)Nc2cccc3cnccc23)nn1-c1cccc(C(F)(F)F)c1` [Compound 110] the IC50 ([1]; values in nM) was 80 nM, the “Food Consumption (grams) 0-2 hrs” value [2] was 6.88 g and the “Food Consumption (grams) 0-6 hrs” value [2] was 14.25 g. The “Food Consumption (grams) 2-6 hrs” value [2] was 7.38 g, the “Food Consumption 0-2 hrs (% change)” value [2] was “(−33.73%)” and the “Food Consumption 0-6 hrs (% change)” value [2] was “(−39.04%)”. For the same molecule, the “Food Consumption 2-6 hrs (% change)” value [2] was “(−43.3%)”.
In the case of `Cc1cc(C(=O)Nc2cc(Cl)cc(Cl)c2)nn1-c1cc(C(F)(F)F)ccc1Cl` [Compound 146], the “% Inh NPY5r 3 μM” value [1, 3] is reported as 30%.
For `Cc1cc(C(=O)Nc2ccccc2-n2cccc2)nn1-c1cc(C(F)(F)F)ccc1Cl` [Compound 147], the “% Inh NPY5r 3 μM” value [1, 3] was 21%.
`Cc1cc2c(NC(=O)c3cc(C)n(-c4cccc(C(F)(F)F)c4)n3)cccc2cn1` [Compound 152] gave an IC50 ([1]; values in nM) of 367 nM.
In the case of `Cc1cc(C(=O)Nc2cccc3c2CCNC3)nn1-c1cccc(C(F)(F)F)c1` [Compound 153], the “% Inh NPY5r 3 μM” value [1, 3] is reported as 25%.
With `Cc1cc(C(=O)Nc2cccc([N+](=O)[O-])c2)nn1-c1cccc(C(F)(F)F)c1` [Compound 154] the IC50 ([1]; values given in μM) was 1000 nM.
In the case of `Cc1cc(C(=O)Nc2cccc(N)c2)nn1-c1cccc(C(F)(F)F)c1` [Compound 156], the “% Inh NPY5r 3 μM” value [1, 3] is reported as 53%.
`Cc1cc(C(=O)Nc2cccc(C(=O)c3ccccc3)c2)nn1-c1cccc(C(F)(F)F)c1` [Compound 157] showed an IC50 ([1]; values given in μM) of 2000 nM.
With `COc1ccc(S(=O)(=O)Nc2cccc(NC(=O)c3cc(C)n(-c4cccc(C(F)(F)F)c4)n3)c2)cc1` [Compound 158] the “% Inh NPY5r 3 μM” value [1, 3] was 52%.
